ChEMBL document CHEMBL1201862, “PubChem BioAssay data set” (2004)
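Assay format: 96-well plates, 48-hour exposure. GI50: concentration for 50% inhibition of growth.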 Activity calls are given as the source filed them. Rule as the data show it: active = GI50 up to about 1.1 µM and inactive = higher.

Columns and labels:
Test in all cases: NCI tumour cell line growth inhibition, 48 h
[1] = test system: MCF7
[2] = test system: SR
[3] = test system: NCI/ADR-RES
[4] = test system: SK-MEL-2
[5] = test system: U-251
[6] = test system: DU-145
[7] = test system: SNB-75
[8] = test system: OVCAR-3
[9] = test system: NCI-H522
[10] = test system: SW-620
[11] = test system: OVCAR-8
[12] = test system: TK-10
[13] = test system: MOLT-4
[14] = test system: CAKI-1
[15] = test system: MDA-MB-435
[16] = test system: SF-539
[17] = test system: HL-60
[18] = test system: EKVX
[19] = test system: SN12C
[20] = test system: MDA-N
[21] = test system: HCC 2998
[22] = test system: Malme-3M
[23] = test system: SK-MEL-28
[24] = test system: A549
[25] = test system: M14
[26] = test system: HCT-116
[27] = test system: RXF 393
[28] = test system: COLO 205
[29] = test system: SNB-19
[30] = test system: CCRF-CEM
[31] = test system: HOP-62
[32] = test system: PC-3
[33] = test system: A498
[34] = test system: MDA-MB-231
[35] = test system: K562
[36] = test system: KM12
[37] = test system: HOP-92
[38] = test system: SF-295
[39] = test system: OVCAR-4
[40] = test system: HCT-15
[41] = test system: RPMI-8226
[42] = test system: 786-0
[43] = test system: ACHN
[44] = test system: SK-OV-3
[45] = test system: IGROV-1
[46] = test system: SF-268
[47] = test system: UACC-257
[48] = test system: Hs-578T
[49] = test system: NCI-H23
[50] = test system: UO-31
[51] = test system: OVCAR-5
[52] = test system: NCI-H226
[53] = test system: SK-MEL-5
[54] = test system: HT-29
[55] = test system: LOX IMVI
[56] = test system: T47D

In the case of `CCCCCCCC/C=C\CCCCCCC(F)C(=O)O` (stereo unspecified), the GI50 [1] is reported as > 12.5 µM (inactive), the GI50 [2] is reported as > 12.5 µM (inactive) and the GI50 [3] is reported as > 12.5 µM (inactive). The GI50 [4] was > 12.5 µM (inactive), the GI50 [5] was > 12.5 µM (inactive) and the GI50 [6] was > 12.5 µM (inactive). For the same molecule, the GI50 [7] was > 12.5 µM (inactive), the GI50 [8] was > 12.5 µM (inactive) and the GI50 [9] was > 12.5 µM (inactive). The GI50 [10] was > 12.5 µM (inactive), the GI50 [11] was > 12.5 µM (inactive) and the GI50 [12] was > 12.5 µM (inactive). The GI50 [13] was > 12.5 µM (inactive), the GI50 [14] was > 12.5 µM (inactive) and the GI50 [15] was > 12.5 µM (inactive). The GI50 [16] was > 12.5 µM (inactive), the GI50 [17] was > 12.5 µM (inactive) and the GI50 [18] was 2.25 µM (inactive). For the same molecule, the GI50 [19] was > 12.5 µM (inactive), the GI50 [20] was > 12.5 µM (inactive) and the GI50 [21] was > 12.5 µM (inactive). The GI50 [22] was > 12.5 µM (inactive), the GI50 [23] was > 12.5 µM (inactive) and the GI50 [24] was > 12.5 µM (inactive). The GI50 [25] was > 12.5 µM (inactive), the GI50 [26] was > 12.5 µM (inactive) and the GI50 [27] was > 12.5 µM (inactive). For the same molecule, the GI50 [28] was > 12.5 µM (inactive), the GI50 [29] was > 12.5 µM (inactive) and the GI50 [30] was > 12.5 µM (inactive). The GI50 [31] was > 12.5 µM (inactive), the GI50 [32] was > 12.5 µM (inactive) and the GI50 [33] was > 12.5 µM (inactive). The GI50 [34] was > 12.5 µM (inactive), the GI50 [35] was > 12.5 µM (inactive) and the GI50 [36] was > 12.5 µM (inactive). For the same molecule, the GI50 [37] was > 12.5 µM (inactive), the GI50 [38] was > 12.5 µM (inactive) and the GI50 [39] was > 12.5 µM (inactive). The GI50 [40] was over 12.5 µM, the GI50 [41] was 11.2 µM (inactive) and the GI50 [42] was > 12.5 µM (inactive). For the same molecule, the GI50 [43] was > 12.5 µM (inactive), the GI50 [44] was > 12.5 µM (inactive) and the GI50 [45] was > 12.5 µM (inactive). The GI50 [46] was > 12.5 µM (inactive), the GI50 [47] was > 12.5 µM (inactive) and the GI50 [48] was > 12.5 µM (inactive). For the same molecule, the GI50 [49] was > 12.5 µM (inactive), the GI50 [50] was > 12.5 µM (inactive) and the GI50 [51] was > 12.5 µM (inactive). For the same molecule, the GI50 [52] was > 12.5 µM (inactive), the GI50 [53] was > 12.5 µM (inactive) and the GI50 [54] was > 12.5 µM (inactive). The GI50 [55] was > 12.5 µM (inactive) and the GI50 [56] was > 12.5 µM (inactive).
